Each structure is given as a SMILES string.

In the assay the target is T1, cloned human alpha-1A adrenergic receptors (α1a) (Homo sapiens, UniProt P35348).
T1 construct: expressed in transfected cells; membranes
T1 sequence (P35348 1-466): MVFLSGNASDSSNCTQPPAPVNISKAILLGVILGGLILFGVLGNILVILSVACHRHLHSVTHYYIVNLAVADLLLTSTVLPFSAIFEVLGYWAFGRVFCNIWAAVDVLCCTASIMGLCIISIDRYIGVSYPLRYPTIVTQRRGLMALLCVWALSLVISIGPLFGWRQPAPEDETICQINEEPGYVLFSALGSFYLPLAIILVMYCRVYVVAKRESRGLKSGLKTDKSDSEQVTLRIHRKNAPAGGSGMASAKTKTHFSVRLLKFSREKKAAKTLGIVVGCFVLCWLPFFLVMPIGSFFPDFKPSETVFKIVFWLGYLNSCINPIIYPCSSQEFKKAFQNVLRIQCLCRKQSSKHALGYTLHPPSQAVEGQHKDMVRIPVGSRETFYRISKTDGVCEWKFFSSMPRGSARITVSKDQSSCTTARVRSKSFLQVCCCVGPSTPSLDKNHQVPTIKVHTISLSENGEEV
As to the kind of experiment: [3H]Prazosin binding to cloned human alpha-1A adrenergic receptors expressed in CHO cells. The settings on record: read-out: halpha1Ki (nM) h = human. The text has this:
^3H]Prazosin Binding to Cloned Human Alpha-1A Adrenergic Receptors (α1a) Expressed in Chinese Hamster Ovary Cells (CHO)
• Purpose: This in vitro assay is designed as a screen to identify compounds displaying a affinity for the human α1a adrenoceptor subtype expressed in the membrane fragments of CHO cells. The assay measures the ability of the test compounds to displace [^3H] prazosin from α1a sites. • The identification of multiple vascular α1-addrenoceptors (α1a, α1b, α1d) in vitro has provided impetus to define the role(s) of these subtypes in cardiovascular regulation in vivo (Vargas and Gorman, 1995). […] Prazosin is a potent antagonist of the human α1a-adrenoceptor subtype, which has been cloned and is expressed in the membrane fragments of CHO cells. • hα1a receptor: The cloning of the human α1a cDNA was accomplished first by screening a human prostate cDNA library (Clontech), from which a portion of the coding region was obtained. This DNA fragment was then used to screen a human leukocyte genomic library (Clontech), and the rest of the coding sequence was obtained. Later these two fragments were spliced together. The entire coding sequence was then fully sequenced including matching PCR sequence with original genomic coding sequence, thus ensuring splice sites were joined correctly (Schwinn et al., 1995). Once sequenced, the gene was subcloned into the expression vector pcDNA3 (Invitrogen). Plasmid DNA was then used for transfection into CHO cells and G418 resistant clones were isolated. A clone expressing high levels of the hα1a receptor (as determined by mRNA and receptor binding data) was chosen and pharmacologically characterized. • Culture Media Ingredients for Adherent α1a expressing CHO Culture: • A. HAM's F-12 (Celigro) • B. 10% 0.2 micron filtered Fetal Bovine Serum (FBS)(Celigro) • C. 1% 0.2 micron filtered Penicillin-Streptomycin (Celigro) • D. G418 0.2 micron filtered (Geneticin 400 μg/ml)(Celigro) • Cells are cultured using established methods and procedures in either 150×25 mm culture plates (scale up to 100 plates) or a combination of these plates and 70 roller bottles. One culturing/harvest cycle typically requires 2 weeks and yields between 100-400 mg protein. Plates or bottles are incubated at 37° C.+5% CO2. • Storage: Cells are harvested by mechanical scraping, washed using PBS, collected in 250 ml Corning polypropylene centrifuge tubes, spun down (1500 RPM) and resuspended in dH2O 10% DMSO (final volume per harvest is approximately 50 ml). Protein determination is made using the Biorad DC Assay Kit. Finally, the appropriate volume is aliquoted into a 2 ml Corning Cryovial (10 mg/1-1.5 ml) which is stored at −80° C.
• Assay Requirement: 0.5 cryovials per 96 well plate (assay volume=200 μl/well) • [^3H]-Ligand: [7-methoxy-^3H]-Prazosin: 1.0 nM (NEN, NET-823) • 70-87 Ci/mmol • Materials: Phentolamine mesylate (Research Biochemicals Int. #P-131) • 96 well flat bottom plates (Beckman) • Unifilter GF/B Plate (Packard) • Polyethylenimine (Sigma #P-3134) • TomTec or Packard Filtermate 196 Cell Harvesters • Packard TopCount Scintillation Counter • Buffers: A: 50 mM Tris HCl; 0.1% ascorbate, pH 7.7 (incubation buffer) • B: 50 mM Tris HCl; pH 7.7 (wash buffer) • Procedure: Assay additions are as follows (in the order indicated): • Total Binding=50 μl buffer A+50 μl [^3H]prazosin+100 μl membrane • Nonsp. Bd.=50 μl 10 μM phentolamine+50 μl [^3H]prazosin+100 μl membrane • Test Cpd.=50 μl compound+50 μl [^3H]prazosin+100 μl membrane • Compounds to be evaluated are weighed out to yield a 10 mM stock solution in DMSO in a 24 well polystyrene plate. This is diluted to a 0.5 mM stock in dH2O, Serial dilutions in Buffer A are made from which 50 μl additions to the plate are made in duplicate in order to achieve the final concentrations desired. Typically, one 96 well plate is used to evaluate 11 compounds at 4 concentrations (10^−6-10^−9 M) in duplicate. Total binding and nonspecific binding are determined in quadruplicate. […]
As for `CC1CCCC(NC(=O)CCCN2CCN(c3csc4cc(C(F)(F)F)ccc34)CC2)C1` (racemic) [compound 826807], the Ki is 166000 nM.

Consider `O=C(CCCN1CCN(c2csc3cc(F)ccc23)CC1)NC1CCCC1` (racemic) [compound 826860], for which the Ki was 0.516 nM.

In the case of `CN(C(=O)CCCN1CCN(c2csc3cc(C(F)(F)F)ccc23)CC1)C1CCCCC1` [compound 826808], the Ki was 126 nM.

As for `O=C(CCCN1CCN(c2csc3cc(C(F)(F)F)ccc23)CC1)N(CCO)C1CCCCC1` [compound 826810], the Ki was 200 nM.

In the case of `CCOC(=O)C1CCN(C(=O)CCCN2CCN(c3csc4cc(C(F)(F)F)ccc34)CC2)CC1` [compound 826811], the Ki was found to be 223 nM.

In the case of `O=C(CCCN1CCN(c2csc3cc(C(F)(F)F)ccc23)CC1)N1CCC(O)CC1` [compound 826812], the Ki is 658 nM.

For `CC1CCCCN1C(=O)CCCN1CCN(c2csc3cc(C(F)(F)F)ccc23)CC1` (stereo not drawn) [compound 826813], the Ki was 57 nM.

Consider `CC1CCN(C(=O)CCCN2CCN(c3csc4cc(C(F)(F)F)ccc34)CC2)CC1` [compound 826814], for which the Ki was found to be 89.3 nM.

For the compound `CC1CCCN(C(=O)CCCN2CCN(c3csc4cc(C(F)(F)F)ccc34)CC2)C1` (stereo not drawn) [compound 826815], the Ki was determined as 80.5 nM.

As for `O=C(CCCN1CCN(c2csc3cc(C(F)(F)F)ccc23)CC1)N1CCC(N2CCCC2)CC1` [compound 826816], the Ki was found to be 249 nM.

As to `CC1CC(C)CN(C(=O)CCCN2CCN(c3csc4cc(C(F)(F)F)ccc34)CC2)C1` (stereo not drawn) [compound 826818], the Ki is 124 nM.

With `O=C(CCCN1CCN(c2csc3cc(C(F)(F)F)ccc23)CC1)N1CCCC1` [compound 826819], the Ki was 49 nM.

For the compound `O=C(CCCN1CCN(c2csc3cc(C(F)(F)F)ccc23)CC1)NC1CCCC1` [compound 826820], the Ki worked out at 129 nM.

In the case of `O=C(CCCN1CCN(c2csc3cc(C(F)(F)F)ccc23)CC1)NC1CCCCC1` [compound 826821], the Ki worked out at 1280 nM.

For the compound `CC1CCCN1C(=O)CCCN1CCN(c2csc3cc(C(F)(F)F)ccc23)CC1` (stereo not drawn) [compound 826822], the Ki amounted to 32.2 nM.

Take `CN(C)C1CCN(C(=O)CCCN2CCN(c3csc4cc(C(F)(F)F)ccc34)CC2)C1` (stereo not drawn) [compound 826823]: the Ki is 148 nM.

In the case of `C[C@H]1CC[C@H](NC(=O)CCCN2CCN(c3csc4cc(F)ccc34)CC2)CC1` [compound 826844], the Ki is 23.4 nM.

Consider `CCOC(=O)[C@H]1CC[C@H](NC(=O)CCCN2CCN(c3csc4cc(F)ccc34)CC2)CC1` [compound 826845], for which the Ki was determined as 5.44 nM.

As for `CC[C@H]1CC[C@H](NC(=O)CCCN2CCN(c3csc4cc(F)ccc34)CC2)CC1` [compound 826846], the Ki amounted to 93.9 nM.

As for `CC1CCCC(NC(=O)CCCN2CCN(c3csc4cc(F)ccc34)CC2)C1` (stereo not drawn) [compound 826847], the Ki was 0.513 nM.

Take `CN(C(=O)CCCN1CCN(c2csc3cc(F)ccc23)CC1)C1CCCCC1` [compound 826848]: the Ki was found to be 12.3 nM.

On to `CCN(C(=O)CCCN1CCN(c2csc3cc(F)ccc23)CC1)C1CCCCC1` [compound 826849], for which the Ki is 35.2 nM.

`O=C(CCCN1CCN(c2csc3cc(F)ccc23)CC1)N(CCO)C1CCCCC1` [compound 826850]: the Ki came out at 28.4 nM.

Turning to `CCOC(=O)C1CCN(C(=O)CCCN2CCN(c3csc4cc(F)ccc34)CC2)CC1` [compound 826851], the Ki was 18.9 nM.

As for `O=C(CCCN1CCN(c2csc3cc(F)ccc23)CC1)N1CCC(O)CC1` [compound 826852], the Ki is 6.16 nM.

As for `CC1CCCCN1C(=O)CCCN1CCN(c2csc3cc(F)ccc23)CC1` (stereo not drawn) [compound 826853], the Ki turned out to be 0.258 nM.

As to `CC1CCN(C(=O)CCCN2CCN(c3csc4cc(F)ccc34)CC2)CC1` [compound 826854], the Ki came out at 0.0713 nM.

As for `CC1CCCN(C(=O)CCCN2CCN(c3csc4cc(F)ccc34)CC2)C1` (stereo not drawn) [compound 826855], the Ki was 0.889 nM.

`O=C(CCCN1CCN(c2csc3cc(F)ccc23)CC1)N1CCC(N2CCCC2)CC1` [compound 826856]: the Ki amounted to 15.3 nM.

Regarding `CC1CC(C)CN(C(=O)CCCN2CCN(c3csc4cc(F)ccc34)CC2)C1` (stereo not drawn) [compound 826858], the Ki worked out at 9.42 nM.

In the case of `O=C(CCCN1CCN(c2csc3cc(F)ccc23)CC1)N1CCCC1` [compound 826859], the Ki was found to be 4 nM.

In the case of `O=C(CCCN1CCN(c2csc3cc(F)ccc23)CC1)NC1CCCCC1` [compound 826861], the Ki amounted to 9.55 nM.

Consider `CC1CCCN1C(=O)CCCN1CCN(c2csc3cc(F)ccc23)CC1` (stereo not drawn) [compound 826862], for which the Ki came to 0.637 nM.

The record behind these values is US7772252B2, “Heterocyclic substituted carbonyl derivatives and their use as dopamine D3 receptor ligands” (Aventis Pharmaceuticals Inc., priority 2001, dated 2010).
